Experimental data reported in ChEMBL document CHEMBL1201862, “PubChem BioAssay data set” (2004).
Active and inactive are the calls of the source.

Experiments:
[1] = target: Intestinal-type alkaline phosphatase (Mus musculus, UniProt P24822); assay: PubChem AID 488785; format: functional
[2] = target: T1, Alkaline phosphatase, tissue-nonspecific isozyme (Homo sapiens, UniProt P05186); assay: TNAP enzyme inhibition by screening hits, dose response, selectivity assay for mouse IAP inhibitor project, biochemical, human TNAP, uHTS hits (AID 488906); format: functional
T1 sequence (P05186 whole entry): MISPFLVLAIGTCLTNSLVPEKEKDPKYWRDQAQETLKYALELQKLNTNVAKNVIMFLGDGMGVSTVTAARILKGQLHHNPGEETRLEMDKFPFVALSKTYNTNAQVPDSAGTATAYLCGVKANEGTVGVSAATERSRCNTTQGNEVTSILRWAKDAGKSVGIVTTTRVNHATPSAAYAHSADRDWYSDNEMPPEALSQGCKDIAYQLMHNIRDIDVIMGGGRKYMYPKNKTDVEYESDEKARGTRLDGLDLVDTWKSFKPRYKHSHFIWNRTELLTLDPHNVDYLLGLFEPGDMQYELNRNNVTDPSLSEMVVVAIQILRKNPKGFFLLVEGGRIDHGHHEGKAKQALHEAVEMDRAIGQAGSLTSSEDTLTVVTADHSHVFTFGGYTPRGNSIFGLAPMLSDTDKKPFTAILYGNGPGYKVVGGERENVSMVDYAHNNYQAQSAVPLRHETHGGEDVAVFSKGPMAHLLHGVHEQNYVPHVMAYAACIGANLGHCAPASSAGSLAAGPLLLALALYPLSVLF

[3] = target: Intestinal-type alkaline phosphatase (Homo sapiens, UniProt P09923); assay: inhibition of human intestinal alkaline phosphatase – biochemical, dose response (AID 488876); format: functional
[4] = target: Lysine-specific demethylase 4C (Homo sapiens, UniProt Q9H3R0); assay: inhibition of JMJD2C H3K9me3 demethylation – biochemical, DELFIA europium, cherry-picked samples, dose response (AID 488835); format: functional
[5] = target: T2, RNA-binding protein pos-1 (Caenorhabditis elegans, UniProt G5EF15); assay: disruptors of C. elegans POS-1 RNA interaction – biochemical, fluorescence polarization, dose response (AID 1964);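 further: purified POS-1 fused to maltose binding protein made in E. coli; potency of compounds blocking POS-1 binding to fluorescent RNA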
T2 sequence (G5EF15 whole entry): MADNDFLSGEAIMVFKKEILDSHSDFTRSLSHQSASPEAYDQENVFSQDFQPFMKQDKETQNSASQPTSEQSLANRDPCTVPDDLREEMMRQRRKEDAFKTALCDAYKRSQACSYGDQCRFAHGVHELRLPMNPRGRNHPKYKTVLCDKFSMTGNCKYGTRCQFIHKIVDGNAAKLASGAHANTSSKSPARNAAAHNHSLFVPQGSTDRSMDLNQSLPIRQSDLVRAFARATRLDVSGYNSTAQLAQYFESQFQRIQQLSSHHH

[6] = target: T3, Runt-related transcription factor 1/Core-binding factor subunit beta (Homo sapiens, UniProt Q01196+Q13951); assay: disruptors of Runt domain/CBFb-SMMHC interaction – biochemical, FRET, Cerulean-Runt, Venus-CBFb-SMMHC, uHTS, […] (AID 1434); format: protein assay
Aspartyl aminopeptidase = target: T4, Aspartyl aminopeptidase (Plasmodium falciparum 3D7, UniProt Q8I2J3)
T4 sequence (Q8I2J3 whole entry): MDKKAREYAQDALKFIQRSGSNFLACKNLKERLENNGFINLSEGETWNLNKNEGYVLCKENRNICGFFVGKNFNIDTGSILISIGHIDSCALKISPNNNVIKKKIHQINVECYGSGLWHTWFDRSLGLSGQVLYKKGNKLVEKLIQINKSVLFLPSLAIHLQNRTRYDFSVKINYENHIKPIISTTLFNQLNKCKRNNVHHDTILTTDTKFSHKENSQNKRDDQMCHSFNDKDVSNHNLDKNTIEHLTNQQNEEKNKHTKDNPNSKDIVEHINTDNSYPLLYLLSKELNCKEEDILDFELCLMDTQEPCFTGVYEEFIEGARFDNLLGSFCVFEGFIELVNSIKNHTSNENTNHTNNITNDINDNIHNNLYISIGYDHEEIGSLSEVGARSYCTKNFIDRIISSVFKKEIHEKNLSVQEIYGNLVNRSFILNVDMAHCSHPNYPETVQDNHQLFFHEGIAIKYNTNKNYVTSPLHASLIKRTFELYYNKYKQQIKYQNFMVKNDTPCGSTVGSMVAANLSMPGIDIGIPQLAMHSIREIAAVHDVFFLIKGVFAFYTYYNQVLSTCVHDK

Procathepsin L = Procathepsin L (Homo sapiens, UniProt P07711)
[7] = target: T5, Zinc finger protein mex-5 (Caenorhabditis elegans, UniProt Q9XUB2); assay: potency of MEX-5 RNA-binding blockers – biochemical, C. elegans, fluorescence polarization, dose response (AID 1960)
T5 sequence (Q9XUB2 whole entry): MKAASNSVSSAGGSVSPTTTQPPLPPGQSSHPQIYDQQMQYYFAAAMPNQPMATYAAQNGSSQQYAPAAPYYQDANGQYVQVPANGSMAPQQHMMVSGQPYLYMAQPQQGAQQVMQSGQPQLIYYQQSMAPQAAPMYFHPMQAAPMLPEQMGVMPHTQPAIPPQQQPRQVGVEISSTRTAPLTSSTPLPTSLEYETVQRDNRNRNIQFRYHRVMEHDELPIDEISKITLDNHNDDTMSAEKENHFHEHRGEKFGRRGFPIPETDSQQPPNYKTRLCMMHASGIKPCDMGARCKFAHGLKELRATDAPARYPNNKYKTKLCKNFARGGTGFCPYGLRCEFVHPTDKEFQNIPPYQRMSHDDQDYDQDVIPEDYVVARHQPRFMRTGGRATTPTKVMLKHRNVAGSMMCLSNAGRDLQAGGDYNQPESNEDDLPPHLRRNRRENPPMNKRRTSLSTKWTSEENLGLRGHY

Large T antigen = Large T antigen (Simian virus 40, UniProt P03070); format: functional, Betapolyomavirus macacae;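 further: Confirmatory-stage PubChem screen for compounds that inhibit SV40 T antigen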
[8] = target: T3, Runt-related transcription factor 1/Core-binding factor subunit beta; assay: Runt domain/CBFb-SMMHC interaction disruptors – biochemical, TR-FRET (AID 1438); format: protein assay
[9] = viability of PTEN-deleted HCT116 cells – cell-based, HCT116 PTEN knockout, dose response (AID 1047); format: functional;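 further: HCT116 colon tumor cells with PTEN knocked out; cells exposed to compound for 60 hours before readout; potency for loss of cell viability measured by luminescence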
[10] = viability of HCT116 lacking mutant beta-catenin – cell-based, human colon tumor, dose response (AID 1045); format: functional;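 further: HCT116 colon tumor cells with beta catenin knocked out; cells exposed to compound for 60 hours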
[11] = target: FAD-linked sulfhydryl oxidase ALR (Homo sapiens, UniProt P55789); assay: ALR-catalysed DTT oxidation blockers – biochemical, H2O2 detection, luminescence, cherry-pick, dose response (AID 493248)
[12] = decrease of insulin promoter-GFP reporter – imaging, high-content screening, mouse beta cells (AID 1628); format: functional; details: MIN6
[13] = system: Streptococcus sp. 'group A'; assay: Streptococcus pyogenes SK(-)GAS viability under kanamycin – luminescence, BacTiterGlo, confirmation, counter-screen for streptokinase expression inhibitor project, dose response (AID 1900); format: functional, organism-based
cells [14] = format: functional, cell-based
[15] = MIN6 cell viability loss – mouse insulinoma, cytotoxicity control, dose response (AID 2122); format: functional;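 further: confirmatory high-throughput counterscreen run to flag cytotoxic compounds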
Streptokinase A = target: T6, Streptokinase A (Streptococcus pyogenes serotype M1, UniProt P10520); assay: viability-normalized secreted streptokinase activity reduction – plasminogen activation absorbance, OD405, dose response (AID 1914); format: functional, Streptococcus pyogenes M1 GAS;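 further: secreted streptokinase activity via plasminogen activation per viability signal from cell pellet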
T6 sequence (P10520 whole entry): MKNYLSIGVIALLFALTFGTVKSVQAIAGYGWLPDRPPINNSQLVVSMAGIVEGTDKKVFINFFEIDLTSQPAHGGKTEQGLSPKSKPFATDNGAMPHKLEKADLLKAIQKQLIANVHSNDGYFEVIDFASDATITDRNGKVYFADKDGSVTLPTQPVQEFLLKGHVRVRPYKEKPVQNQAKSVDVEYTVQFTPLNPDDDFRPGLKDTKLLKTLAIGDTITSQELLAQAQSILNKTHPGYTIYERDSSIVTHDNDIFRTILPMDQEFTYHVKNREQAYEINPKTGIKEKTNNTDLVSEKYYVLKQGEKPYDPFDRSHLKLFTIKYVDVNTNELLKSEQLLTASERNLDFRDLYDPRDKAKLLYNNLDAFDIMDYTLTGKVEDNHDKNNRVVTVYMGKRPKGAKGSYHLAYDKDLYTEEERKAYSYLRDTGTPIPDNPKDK

cells [16] = format: functional, cell-based; remark: listed apart in the source
Streptococcus = assay: GAS UMAA2166 growth inhibition – luminescence, BacTiterGlo, counter-screen for streptokinase expression inhibitor project, dose response (AID 1915); format: functional, organism-based;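 further: potency for reduction of bacterial viability or growth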
INS1 = assay: INS-1E survival protection against cytokine death – cell-based, luminescence, retest, dose response (AID 449756); format: functional; details: Rattus norvegicus, INS1;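 further: cell death triggered by IL-1 beta plus TNF-alpha plus IFN-gamma mixture; protective hits raise ATP signal compared with cytokine alone wells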
H9c2 = assay: cells; format: functional, cell-based; details: Rattus norvegicus, H9c2, Myocardium;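 further: confirmatory concentration-response retest of ultra-high-throughput screening hits for modulation of myocardial damage; cell death induced by hydrogen peroxide oxidative stress; compound pretreatment for 60 min then peroxide exposure for 2 h; potency is for protecting the cells against peroxide damage rather than for killing them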
[17] = reduction of Shn3 3'UTR-driven luciferase in osteoblasts – cell-based, Clone20 osteoblasts, firefly luciferase, cherry-picked, dose response (AID 624132); format: functional;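 further: firefly luciferase luminescence from reporter carrying the Shn3 3'UTR in osteoblasts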
[18] = loss of viability in HepG2 cells – cell-based, CellTiter-Glo, cherry-picked, cytotoxicity control for Shn3 inhibitor project, dose response (AID 624134); format: functional
[19] = non-specific 3'UTR reporter inhibition in Clone20-Shn3RL – cell-based, Renilla luciferase, cherry-picked, counter-screen for Shn3 inhibitor project, dose response (AID 624133); format: functional
[20] = Luminescence Cell-Based Dose Retest to Confirm Inhibitors of Cancer Stem Cells. [Related pubchem assays (depositor defined):AID2717, AID2721]; format: functional; details: Homo sapiens
HEK293 [21] = assay: cells; details: Homo sapiens
HEK293 [22] = assay: cells; details: Homo sapiens; remark: listed apart in the source
SUMO E1/E2 = SUMO E1/E2 (Homo sapiens, UniProt P63279+Q9UBE0+Q9UBT2); assay: SAR analysis of SUMOylation using HTRF in an in-Vitro dose response assay. [Related pubchem assays (depositor defined):AID2006, AID2011, AID2018, AID2069, AID2658]; format: functional
[23] = target: Voltage-dependent T-type calcium channel subunit alpha-1H (Homo sapiens, UniProt O95180); format: functional;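 further: channel activity triggered by adding a high calcium stimulation buffer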
Protein Wnt-3a = Protein Wnt-3a (Mus musculus, UniProt P27467); assay: antagonism of Wnt3a pathway luciferase reporter – Wnt-LIGHT cells, luminescence, selectivity assay for Gli-SUFU antagonist project, dose response (AID 651570); format: functional; details: read-out: IC50_Mean;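 further: Wnt-LIGHT reporter cells stimulated with conditioned medium from Wnt3a-producing cells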
Bcl-2-related protein A1 = target: T7, Bcl-2-related protein A1 (Mus musculus, UniProt Q07440); format: functional;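 further: confirmatory dose–response counterscreen on Bfl-1, used to check hits from a UBC13 polyubiquitin inhibitor campaign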
T7 sequence (Q07440 whole entry): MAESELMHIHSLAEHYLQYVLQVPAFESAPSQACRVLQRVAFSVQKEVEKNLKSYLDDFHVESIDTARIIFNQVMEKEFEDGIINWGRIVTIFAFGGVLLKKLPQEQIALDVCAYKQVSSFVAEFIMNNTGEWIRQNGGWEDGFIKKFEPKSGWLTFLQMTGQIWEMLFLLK

[24] = target: T8, Ubiquitin-conjugating enzyme E2 N (Homo sapiens, UniProt P61088); format: functional
T8 sequence (P61088 whole entry): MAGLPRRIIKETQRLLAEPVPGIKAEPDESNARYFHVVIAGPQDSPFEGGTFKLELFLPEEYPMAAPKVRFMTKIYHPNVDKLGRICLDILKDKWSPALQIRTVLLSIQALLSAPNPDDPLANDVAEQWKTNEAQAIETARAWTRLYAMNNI

[25] = target: T8, Ubiquitin-conjugating enzyme E2 N; format: functional; remark: listed apart in the source

T3 sequence (Q01196 whole entry, the tested form may be a part): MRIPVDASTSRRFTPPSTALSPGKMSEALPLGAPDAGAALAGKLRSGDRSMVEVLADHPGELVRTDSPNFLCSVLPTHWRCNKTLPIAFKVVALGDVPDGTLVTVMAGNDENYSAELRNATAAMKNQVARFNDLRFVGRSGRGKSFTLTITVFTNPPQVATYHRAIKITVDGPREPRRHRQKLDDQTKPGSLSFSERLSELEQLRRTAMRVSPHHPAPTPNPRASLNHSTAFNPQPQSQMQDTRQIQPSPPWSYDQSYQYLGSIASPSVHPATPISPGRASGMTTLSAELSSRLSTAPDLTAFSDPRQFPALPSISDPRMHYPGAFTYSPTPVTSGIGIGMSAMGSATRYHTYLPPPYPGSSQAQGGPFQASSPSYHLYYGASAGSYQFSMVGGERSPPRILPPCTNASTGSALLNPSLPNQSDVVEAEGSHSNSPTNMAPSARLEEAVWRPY
T3 sequence (Q13951 whole entry, the tested form may be a part): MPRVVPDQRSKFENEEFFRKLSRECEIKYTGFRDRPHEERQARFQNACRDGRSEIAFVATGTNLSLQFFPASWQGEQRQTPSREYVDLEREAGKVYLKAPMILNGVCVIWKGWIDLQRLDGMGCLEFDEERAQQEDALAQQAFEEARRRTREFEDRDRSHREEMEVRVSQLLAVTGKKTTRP
Chain of Large T antigen (P03070 whole entry, the tested form may be a part): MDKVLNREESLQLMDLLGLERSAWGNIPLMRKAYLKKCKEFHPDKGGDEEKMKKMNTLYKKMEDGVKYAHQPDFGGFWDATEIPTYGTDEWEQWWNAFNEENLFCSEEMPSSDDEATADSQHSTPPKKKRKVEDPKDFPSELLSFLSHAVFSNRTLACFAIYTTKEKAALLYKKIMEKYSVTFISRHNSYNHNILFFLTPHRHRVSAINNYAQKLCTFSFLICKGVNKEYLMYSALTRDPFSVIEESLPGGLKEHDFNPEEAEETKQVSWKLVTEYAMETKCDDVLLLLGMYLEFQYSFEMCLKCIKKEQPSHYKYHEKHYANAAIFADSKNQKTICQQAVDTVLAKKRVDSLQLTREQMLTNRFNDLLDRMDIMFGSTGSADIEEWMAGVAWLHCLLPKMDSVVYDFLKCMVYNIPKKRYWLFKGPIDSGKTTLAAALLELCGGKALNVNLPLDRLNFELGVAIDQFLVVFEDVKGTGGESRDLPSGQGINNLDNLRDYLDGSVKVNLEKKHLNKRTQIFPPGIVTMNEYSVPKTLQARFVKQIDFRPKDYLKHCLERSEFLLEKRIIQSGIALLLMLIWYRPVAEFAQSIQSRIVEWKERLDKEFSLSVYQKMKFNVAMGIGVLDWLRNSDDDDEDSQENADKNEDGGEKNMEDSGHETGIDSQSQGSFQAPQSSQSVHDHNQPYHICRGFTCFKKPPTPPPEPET
Chain of Intestinal-type alkaline phosphatase (Homo sapiens, UniProt P09923) (P09923 whole entry): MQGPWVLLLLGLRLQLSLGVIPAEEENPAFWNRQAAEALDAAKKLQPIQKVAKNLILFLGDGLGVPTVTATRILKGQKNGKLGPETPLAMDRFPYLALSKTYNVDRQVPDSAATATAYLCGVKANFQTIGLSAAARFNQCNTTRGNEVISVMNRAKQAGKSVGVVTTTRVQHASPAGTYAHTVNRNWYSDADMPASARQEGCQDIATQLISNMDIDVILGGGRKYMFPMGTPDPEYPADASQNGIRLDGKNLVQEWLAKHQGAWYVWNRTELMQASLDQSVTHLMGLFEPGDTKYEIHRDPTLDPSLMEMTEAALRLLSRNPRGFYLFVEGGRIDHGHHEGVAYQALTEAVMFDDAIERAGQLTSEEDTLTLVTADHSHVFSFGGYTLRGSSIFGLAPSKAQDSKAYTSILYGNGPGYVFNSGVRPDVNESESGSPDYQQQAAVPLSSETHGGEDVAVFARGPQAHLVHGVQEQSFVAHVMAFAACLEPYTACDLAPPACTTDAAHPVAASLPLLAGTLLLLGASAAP
Chain of SUMO E1/E2 (Q9UBE0 whole entry): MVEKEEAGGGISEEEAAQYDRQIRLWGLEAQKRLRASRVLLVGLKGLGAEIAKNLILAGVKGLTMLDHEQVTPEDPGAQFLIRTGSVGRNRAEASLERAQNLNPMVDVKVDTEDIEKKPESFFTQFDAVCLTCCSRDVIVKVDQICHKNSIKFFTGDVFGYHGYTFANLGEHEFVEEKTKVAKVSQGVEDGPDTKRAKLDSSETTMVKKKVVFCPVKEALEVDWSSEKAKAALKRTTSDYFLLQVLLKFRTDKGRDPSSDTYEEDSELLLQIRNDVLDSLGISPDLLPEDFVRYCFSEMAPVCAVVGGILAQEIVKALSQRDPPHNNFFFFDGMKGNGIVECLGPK
Chain of SUMO E1/E2 (Q9UBT2 whole entry): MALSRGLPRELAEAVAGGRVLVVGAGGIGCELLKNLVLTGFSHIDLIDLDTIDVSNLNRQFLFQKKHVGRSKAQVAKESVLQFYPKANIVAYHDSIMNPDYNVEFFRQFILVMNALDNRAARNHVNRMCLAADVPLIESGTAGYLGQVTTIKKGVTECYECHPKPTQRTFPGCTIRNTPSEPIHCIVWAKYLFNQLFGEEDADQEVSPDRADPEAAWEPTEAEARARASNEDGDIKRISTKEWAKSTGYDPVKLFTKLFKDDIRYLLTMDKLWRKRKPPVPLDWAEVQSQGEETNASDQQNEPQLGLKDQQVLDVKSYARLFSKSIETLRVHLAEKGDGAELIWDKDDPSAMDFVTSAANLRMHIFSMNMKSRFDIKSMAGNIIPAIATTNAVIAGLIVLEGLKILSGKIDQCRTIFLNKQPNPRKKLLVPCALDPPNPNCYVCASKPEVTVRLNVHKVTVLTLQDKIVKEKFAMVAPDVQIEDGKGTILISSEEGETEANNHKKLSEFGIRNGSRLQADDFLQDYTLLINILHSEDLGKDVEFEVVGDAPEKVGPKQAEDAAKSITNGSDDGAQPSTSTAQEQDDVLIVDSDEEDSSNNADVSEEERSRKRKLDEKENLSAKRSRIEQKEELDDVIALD
Chain of SUMO E1/E2 (P63279 whole entry): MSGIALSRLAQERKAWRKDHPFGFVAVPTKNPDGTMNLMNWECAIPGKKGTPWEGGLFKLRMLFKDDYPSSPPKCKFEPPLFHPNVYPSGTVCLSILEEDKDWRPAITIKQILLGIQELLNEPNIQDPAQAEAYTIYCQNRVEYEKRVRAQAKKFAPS
Chain of Intestinal-type alkaline phosphatase (Mus musculus, UniProt P24822) (P24822 whole entry): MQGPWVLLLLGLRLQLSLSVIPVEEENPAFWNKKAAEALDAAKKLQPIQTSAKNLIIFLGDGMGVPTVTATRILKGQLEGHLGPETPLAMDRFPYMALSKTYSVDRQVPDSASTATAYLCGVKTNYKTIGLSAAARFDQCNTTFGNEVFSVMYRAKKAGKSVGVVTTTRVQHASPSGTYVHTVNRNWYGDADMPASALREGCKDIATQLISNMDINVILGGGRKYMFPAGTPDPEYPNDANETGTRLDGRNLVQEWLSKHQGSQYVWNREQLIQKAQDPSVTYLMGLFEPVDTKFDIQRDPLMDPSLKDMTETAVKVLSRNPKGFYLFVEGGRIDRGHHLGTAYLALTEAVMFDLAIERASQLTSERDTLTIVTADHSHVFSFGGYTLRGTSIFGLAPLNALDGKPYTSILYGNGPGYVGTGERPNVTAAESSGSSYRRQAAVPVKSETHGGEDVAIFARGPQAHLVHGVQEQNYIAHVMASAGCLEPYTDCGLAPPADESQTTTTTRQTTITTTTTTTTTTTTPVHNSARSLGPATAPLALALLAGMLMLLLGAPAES
Chain of Protein Wnt-3a (P27467 whole entry): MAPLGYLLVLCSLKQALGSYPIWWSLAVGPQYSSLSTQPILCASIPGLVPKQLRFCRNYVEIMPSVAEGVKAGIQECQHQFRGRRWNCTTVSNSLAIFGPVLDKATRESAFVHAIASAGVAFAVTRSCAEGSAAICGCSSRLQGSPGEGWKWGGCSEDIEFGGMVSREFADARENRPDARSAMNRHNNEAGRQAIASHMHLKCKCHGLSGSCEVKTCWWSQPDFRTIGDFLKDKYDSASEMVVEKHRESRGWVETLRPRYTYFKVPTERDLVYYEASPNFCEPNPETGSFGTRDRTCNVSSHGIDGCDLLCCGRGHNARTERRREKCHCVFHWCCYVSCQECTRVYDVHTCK
Chain of Procathepsin L (P07711 whole entry): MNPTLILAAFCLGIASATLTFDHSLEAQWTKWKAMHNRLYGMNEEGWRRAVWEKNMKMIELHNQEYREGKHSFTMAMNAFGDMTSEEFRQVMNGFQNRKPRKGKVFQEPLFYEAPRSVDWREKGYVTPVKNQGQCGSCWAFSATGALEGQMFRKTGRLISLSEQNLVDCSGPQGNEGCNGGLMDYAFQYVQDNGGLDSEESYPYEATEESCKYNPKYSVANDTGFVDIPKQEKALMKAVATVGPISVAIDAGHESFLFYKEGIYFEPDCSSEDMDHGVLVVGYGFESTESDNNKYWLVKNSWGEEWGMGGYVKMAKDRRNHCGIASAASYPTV
Chain of FAD-linked sulfhydryl oxidase ALR (P55789 whole entry): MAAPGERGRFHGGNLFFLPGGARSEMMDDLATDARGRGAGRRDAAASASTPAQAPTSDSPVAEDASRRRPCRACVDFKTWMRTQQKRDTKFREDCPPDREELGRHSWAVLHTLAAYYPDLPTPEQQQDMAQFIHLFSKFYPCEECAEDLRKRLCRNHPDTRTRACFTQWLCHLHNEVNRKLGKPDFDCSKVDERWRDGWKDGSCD

Cc1ccc(C)c(NC(=O)CCNS(=O)(=O)c2ccc3[nH]c(=O)oc3c2)c1
IC50 [1]: 5.21 µM (active)
IC50 [2]: 22.6 µM (active)
IC50 [3]: > 100 µM (inactive)

COc1ccc(NC(=O)CNC(=O)c2nn(-c3ccc(OC)c(Cl)c3)c(=O)c3ccccc23)c(OC)c1
AC50 [4]: 21.5 µM (active)

Oc1ccc(O)c(-c2cnns2)c1
EC50 [5]: > 300 µM (not active)
IC50 [6]: 33.8 µM (active)
IC50 (Aspartyl aminopeptidase): 1.89 µM (active)
IC50 (Procathepsin L): > 59.6 µM (not active)
EC50 [7]: 6.91 µM (active)
IC50 (Large T antigen): 10 µM (active)
IC50 [8]: 20.5 µM (active)
EC50 [9]: 47.1 µM (active)
EC50 [10]: 365 µM (active)
AC50 [11]: 4.57 µM (active)

O=C(Nc1nc(-c2ccccn2)cs1)c1cccc(-n2cnnn2)c1
IC50 [12]: 2.43 µM (active)
EC50 [13]: 24.7 µM (active)
EC50 (cells [14]): > 350 µM (not active)
IC50 [15]: 2.54 µM (active)
EC50 (Streptokinase A): > 150 µM (not active)
EC50 (cells [16]): > 350 µM (not active)
EC50 (Streptococcus): > 150 µM (not active)
AC50 (INS1): 1.56 µM (active)
IC50 (H9c2): > 79 µM (inactive)
AC50 [17]: 2.58 µM (active)
AC50 [18]: 8.31 µM (active)
AC50 [19]: 2.43 µM (active)

O=C(NCCC1=CCCCC1)c1coc(=O)c(Br)c1
EC50 [9]: 28.9 µM (active)
EC50 [10]: 28.6 µM (active)
AC50 [20]: 6.05 µM (active)
EC50 (HEK293 [21]): > 59.6 µM (inactive)
EC50 (HEK293 [22]): > 59.6 µM (inactive)

O=c1c2ccccc2nc(COc2ccccc2)n1N=Cc1cc([N+](=O)[O-])ccc1O
IC50 (SUMO E1/E2): 43.7 µM (active)

CCCOc1ccccc1N=C(NC(=O)COc1ccc(OC)cc1)Nc1nc(C)cc(C)n1
IC50 [12]: 2.3 µM (active)
IC50 [15]: 3.16 µM (active)
EC50 [23]: 8.53 µM (active)
AC50 [17]: 3.24 µM (active)
AC50 [18]: 49.3 µM (active)
AC50 [19]: 6.58 µM (active)
IC50 (Protein Wnt-3a): 6.39 µM (active)

COc1ccccc1NC(=O)CN1CCC(n2c(C)nc3cc(F)ccc32)CC1
IC50 (Bcl-2-related protein A1): > 20 µM (inactive)
IC50 [24]: 1.53 µM (active)
IC50 [25]: 1.78 µM (active)
EC50 (HEK293 [21]): > 59.6 µM (inactive)
EC50 (HEK293 [22]): > 59.6 µM (inactive)
